Results from patent US20250129135A1, “Multi-Agonist and Use Thereof” (priority 2021, published 2025).
Starred links: 1 amine or outer side, 2 acyl side, 3 side chain; linkers in the order of their positions; H or OH if unused. Non-standard residues stand in square brackets, D forms with d. Residues, ends and D or L forms follow the SMILES beside them. Groups on a side chain read outwards from the residue. *: point of attachment. C20 diacid = O=C(O)CCCCCCCCCCCCCCCCCCC(=O)*; αMePhe(2-F) = C[C@](N)(Cc1ccccc1F)C(=O)O; γGlu = O=C(O)[C@H](CCC(=O)[*:2])N[*:1]; αMeL = CC(C)C[C@](C)(N)C(=O)O; AEEA = NCCOCCOCC(=O)O; Aib = CC(C)(N)C(=O)O

How the values were obtained:
RIN-m5F cells = format: cell-based, rat; settings: for Rel. A (Relative Activity) on RIN-m5F: relative to GLP-1(7-37)
Procedure, shortened: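 After 60 min room-temperature exposure of HBSS-suspended RIN-m5F cells to compound and another 60 min with detection reagent, cellular cAMP level was determined.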

Human GIP R = target: T1, Human GIP R (Homo sapiens, UniProt P48546); test: cAMP (HTRF) activity in CHO cells stably overexpressing GIP receptor; format: cell-based; settings: for Human GIP R Rel. A (Relative Activity): EC50 of human GIP / EC50 of compound; for EC50: stable transfected cell cAMP activity, at least 3 independent tests
T1 construct: expressed in transfected cells; host or cells: CHO
T1 sequence (P48546 22-466): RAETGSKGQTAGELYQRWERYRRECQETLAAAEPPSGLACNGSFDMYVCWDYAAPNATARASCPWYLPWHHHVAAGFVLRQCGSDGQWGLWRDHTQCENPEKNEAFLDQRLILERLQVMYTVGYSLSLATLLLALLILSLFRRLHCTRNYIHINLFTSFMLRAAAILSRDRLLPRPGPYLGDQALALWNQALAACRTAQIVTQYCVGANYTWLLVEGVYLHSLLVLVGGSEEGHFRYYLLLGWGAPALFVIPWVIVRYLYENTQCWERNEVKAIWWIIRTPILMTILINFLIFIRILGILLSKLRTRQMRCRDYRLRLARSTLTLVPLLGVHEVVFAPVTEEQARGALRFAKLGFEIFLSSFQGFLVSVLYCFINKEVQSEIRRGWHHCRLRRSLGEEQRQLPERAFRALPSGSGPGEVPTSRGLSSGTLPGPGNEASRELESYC
Procedure, shortened: (§1)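 Agonism was assessed from intracellular cAMP by HTRF. Cells resuspended in HBSS were treated with compound for 60 minutes at room temperature, then with detection reagent for a further 60 minutes. EC50 (nM) values came from concentration–response curves.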

Human GCG R = target: T2, Human GCG R (Homo sapiens, UniProt P47871); test: cAMP (HTRF) activity in HEK-293 cells stably overexpressing human GCG receptor; format: cell-based; settings: EC50 of human GCG / EC50 of compound
T2 construct: expressed in transfected cells; host or cells: HEK-293
Procedure, shortened: as §1

T2 sequence (P47871 26-477): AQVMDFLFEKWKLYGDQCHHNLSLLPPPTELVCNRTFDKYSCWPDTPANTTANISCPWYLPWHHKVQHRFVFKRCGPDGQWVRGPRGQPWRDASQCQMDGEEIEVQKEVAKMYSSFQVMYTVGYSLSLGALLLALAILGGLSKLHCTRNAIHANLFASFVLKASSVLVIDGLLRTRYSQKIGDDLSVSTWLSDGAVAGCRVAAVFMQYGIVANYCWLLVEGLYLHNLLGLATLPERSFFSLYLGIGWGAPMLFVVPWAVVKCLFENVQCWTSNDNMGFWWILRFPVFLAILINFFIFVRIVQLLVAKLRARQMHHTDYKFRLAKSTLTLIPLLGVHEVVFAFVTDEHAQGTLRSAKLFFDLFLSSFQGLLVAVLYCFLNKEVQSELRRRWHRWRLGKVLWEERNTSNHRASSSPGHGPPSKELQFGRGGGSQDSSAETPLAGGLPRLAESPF

Row | SMILES | EC50 (RIN-m5F cells) | Rel. A (Relative Activity) on RIN-m5F (RIN-m5F cells) | Human GIP R Rel. A (Relative Activity) (Human GIP R) | EC50 (Human GIP R) | Human GCG R Rel. A (Relative Activity) (Human GCG R)
1 | CC[C@H](C)[C@H](NC(=O)[C@H](Cc1ccccc1)NC(=O)[C@H](C)NC(=O)C(C)(C)NC(=O)[C@H](CCC(N)=O)NC(=O)[C@H](C)NC(=O)[C@H](CCCCNC(=O)COCCOCCNC(=O)COCCOCCNC(=O)CC[C@H](NC(=O)CCCCCCCCCCCCCCCCCCC(=O)O)C(=O)O)NC(=O)[C@H](CCCCN)NC(=O)[C@H](CC(=O)O)NC(=O)[C@H](CC(C)C)NC(=O)[C@](C)(CC(C)C)NC(=O)[C@@H](NC(=O)[C@H](CO)NC(=O)[C@H](Cc1ccc(O)cc1)NC(=O)[C@H](CC(=O)O)NC(=O)[C@H](CO)NC(=O)[C@@H](NC(=O)[C@](C)(Cc1ccccc1F)NC(=O)[C@@H](NC(=O)CNC(=O)[C@H](CCC(N)=O)NC(=O)C(C)(C)NC(=O)[C@@H](N)Cc1ccc(O)cc1)[C@@H](C)O)[C@@H](C)O)[C@@H](C)CC)C(=O)N[C@@H](CCC(=O)O)C(=O)N[C@@H](Cc1ccccc1)C(=O)N[C@@H](CC(C)C)C(=O)N[C@@H](CC(C)C)C(=O)N[C@@H](CCC(=O)O)C(=O)N[C@H](C(=O)NCC(=O)N1CCC[C@H]1C(=O)N[C@@H](CO)C(=O)N[C@@H](CO)C(=O)NC(C)(C)C(=O)N[C@@H](Cc1c[nH]cn1)C(=O)N1CCC[C@H]1C(=O)N1CCC[C@H]1C(=O)N1CCC[C@H]1C(=O)N[C@@H](CO)C(N)=O)[C@@H](C)O [Compound 38] (H-Y[Aib]QGT[αMePhe(2-F)]TSDYSI[αMeL]LDKK([AEEA-AEEA-γGlu-C20 diacid])AQ[Aib]AFIEFLLETGPSS[Aib]HPPPS-NH2; N-terminus assumed) | 0.173 nM | 596.53% | 1392.31% | 0.013 nM | 83.82%
2 | CC[C@H](C)[C@H](NC(=O)[C@H](Cc1ccccc1)NC(=O)[C@H](C)NC(=O)C(C)(C)NC(=O)[C@H](CCC(N)=O)NC(=O)[C@H](C)NC(=O)[C@H](CCCCNC(=O)COCCOCCNC(=O)COCCOCCNC(=O)CC[C@H](NC(=O)CCCCCCCCCCCCCCCCCCC(=O)O)C(=O)O)NC(=O)[C@H](CCCCN)NC(=O)[C@H](CC(=O)O)NC(=O)[C@H](CC(C)C)NC(=O)[C@H](Cc1ccccc1)NC(=O)[C@@H](NC(=O)[C@H](CO)NC(=O)[C@H](Cc1ccc(O)cc1)NC(=O)[C@H](CC(=O)O)NC(=O)[C@H](CO)NC(=O)[C@@H](NC(=O)[C@](C)(Cc1ccccc1F)NC(=O)[C@@H](NC(=O)CNC(=O)[C@H](CCC(N)=O)NC(=O)C(C)(C)NC(=O)[C@@H](N)Cc1ccc(O)cc1)[C@@H](C)O)[C@@H](C)O)[C@@H](C)CC)C(=O)N[C@@H](CCC(=O)O)C(=O)N[C@@H](Cc1ccc(O)cc1)C(=O)N[C@@H](CC(C)C)C(=O)N[C@@H](CC(C)C)C(=O)N[C@@H](CCC(=O)O)C(=O)NC(C)(C)C(=O)N[C@@H](Cc1c[nH]cn1)C(=O)N1CCC[C@H]1C(=O)N[C@@H](CO)C(=O)N[C@@H](CO)C(=O)NCC(=O)N[C@@H](C)C(=O)N1CCC[C@H]1C(=O)N1CCC[C@H]1C(=O)N1CCC[C@H]1C(=O)N[C@@H](CO)C(N)=O [Compound 18] | 0.214 nM | 482.24% | 861.90% | 0.021 nM | –
